{"source": "patent US6916797B2", "about": "“α-arylethylpiperazine derivatives as neurokinin antagonists” (UCB, S.A., priority 2000, dated 2005)", "key": {"[1]": {"test_system": "verapamil-sensitive L-type Ca2+ binding site", "conditions": "cited from earlier work"}, "NK1 receptors [2]": {"molecular_target": "T1, NK1 receptors (Homo sapiens, UniProt P25103)", "T1 sequence (P25103 whole entry)": "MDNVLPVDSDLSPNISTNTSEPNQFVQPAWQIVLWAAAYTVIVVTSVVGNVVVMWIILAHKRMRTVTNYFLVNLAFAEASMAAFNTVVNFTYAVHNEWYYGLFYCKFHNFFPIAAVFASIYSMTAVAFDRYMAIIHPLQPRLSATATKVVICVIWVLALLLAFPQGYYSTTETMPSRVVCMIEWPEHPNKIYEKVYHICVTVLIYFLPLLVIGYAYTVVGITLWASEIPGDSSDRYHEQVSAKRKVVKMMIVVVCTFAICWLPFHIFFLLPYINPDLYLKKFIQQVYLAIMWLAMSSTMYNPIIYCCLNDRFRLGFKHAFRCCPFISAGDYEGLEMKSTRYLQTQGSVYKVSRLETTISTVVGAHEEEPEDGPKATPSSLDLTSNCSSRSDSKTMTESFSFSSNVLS", "conditions": "cited from earlier work"}, "[3]": {"conditions": "in vivo; cited from earlier work"}, "NK1 receptors [4]": {"molecular_target": "T1, NK1 receptors", "test": "Binding of [4,5-3H-Leu10] substance P to human recombinant NK1 receptors expressed in CHO cell membranes", "parameters": "host or cells: CHO cells", "conditions": "pIC50 = -log IC50, concentration inhibiting by 50% the specific binding of [4,5-3H] substance P; tested as the free base/salt given in c1"}, "[5]": {"test_system": "verapamil binding site of the L-type calcium channel", "test": "Inhibition of [3H]D888 binding to the verapamil binding site of the L-type calcium channel (rat cerebral cortex membranes)", "conditions": "10 μmol/l of test substance"}, "[6]": {"test_system": "isolated rat aorta contracted by 100 mM KCl", "test": "Effect of compound on isolated rat aorta contracted by 100 mM KCl", "conditions": "10^−5 M; contraction by 100 mM KCl", "experimental": "Rat thoracic aorta depolarized by 100 mM KCl develops a contraction induced by an influx of Ca^2+ into the smooth muscle cell. An inhibition of this contraction could predict a Ca^2+ antagonist activity.\nThe method was adapted from Polster P. et al., J. Pharmacol. Exp. Ther. (1990), 255, 593: rings of thoracic aorta were prepared from male Wistar rats (250-400 g) and mounted under an optimal resting tension of 2 g in 10 ml organ baths containing modified Krebs' solution (NaCl 112 mM, NaHCO3 25 mM, KCl 5 mM, MgSO4 1.2 mM, CaCl2 2.5 mM, KH2PO4 1 mM and glucose 11.5 mM, pH 7.4). The bathing solution was maintained at a temperature of 37° C. and gassed with 95% O2 and 5% CO2. Isometric contractions were measured with a force transducer connected to an amplifier. A computer system was used to control data acquisition and fluid circulation through electrovalves. Drugs were manually injected into the bath.\nEach ring was allowed to equilibrate for 60 min in the modified Krebs' solution. […] After obtaining two reproducible control contractions, a 3rd contraction was induced and the test compound was added to the bathing medium for 2 hours. Only preparation in which the contractions were matched were used. Each tissue received only one concentration of the test compound. Appropriate control experiments were conducted in order to test the effect of the solvant.\nTo normalize data, the change in tension due to the drug was compared to the change of tension due to the solvant and expressed as percentage of the induced relaxation of the initial contraction. Raw data were processed by a computer system and the pD′2 value was calculated following the method of Van Rossum J. M. et al., Arch. Int. Pharmacodyn. Ther. (1963), 143, 299."}, "[7]": {"conditions": "after oral administration; cited from earlier work"}}, "data": [{"compound": "COc1ccccc1CN[C@H]1C2CCN(CC2)[C@H]1C(c1ccccc1)c1ccccc1", "note": "[CP-96,345]", "values": [{"measurement": "affinity for / interaction with the verapamil-sensitive L-type Ca2+ binding site", "setting": "[1]", "result": "significant affinity"}, {"measurement": "selectivity for NK1 receptors with respect to NK2 and NK3 receptors", "setting": "NK1 receptors [2]", "result": "good selectivity"}]}, {"compound": "COc1ccccc1CN[C@H]1CCCN[C@H]1c1ccccc1", "note": "[CP-99,994]", "values": [{"measurement": "affinity for / interaction with the verapamil-sensitive L-type Ca2+ binding site", "setting": "[1]", "result": "lower interaction"}, {"measurement": "outcome of first phase II clinical trials for asthma", "setting": "[3]", "result": "unsuccessful"}, {"measurement": "selectivity for NK1 receptors with respect to NK2 and NK3 receptors", "setting": "NK1 receptors [2]", "result": "good NK1 selectivity"}]}, {"compound": "O=C(O)C1CCC(N2CCN(C(COCc3cc(C(F)(F)F)cc(C(F)(F)F)c3)c3ccccc3)CC2)CC1", "note": "(stereo not drawn) [Compound 312, cis- or trans-4-{4-[2-(3,5-Bis-trifluoromethyl-benzyloxy)-1-phenyl-ethyl]-piperazin-1-yl}-cyclohexanecarboxylic acid]", "values": [{"measurement": "IC50", "setting": "NK1 receptors [4]", "result": 0.0251, "unit": "µM"}, {"measurement": "% inhibition of [3H]D888 binding to the verapamil binding site of the L-type calcium channel", "setting": "[5]", "result": "0 (0: inhibition < 20%)"}, {"measurement": "Result: effect of compound on isolated rat aorta contracted by 100 mM KCl", "setting": "[6]", "result": "inactive à 10^−5 M"}]}, {"compound": "COc1ccccc1CC(=N)N1C[C@@H]2C(=O)CCC(c3ccccc3)(c3ccccc3)[C@@H]2C1", "note": "[RP-67,580]", "values": [{"measurement": "NK1 affinity", "setting": "NK1 receptors [2]", "result": "some NK1 affinity"}]}, {"compound": "COc1ccccc1[C@H](C)C(=O)N1C[C@@H]2[C@H](C1)C(c1ccccc1)(c1ccccc1)CC[C@@]2(O)c1ccccc1OC", "note": "[RP-100,893]", "values": [{"measurement": "activity in clinical trials for the treatment of migraine", "setting": "[7]", "result": "no better than placebo activity"}]}]}
